The text below walks through data of ChEMBL document CHEMBL5537147, “Development of membrane-targeting TPP+-chloramphenicol conjugates to combat methicillin-resistant staphylococcus aureus (MRSA) infections” (Eur J Med Chem, 2024).

For series [1], the system named is Staphylococcus aureus. As to the kind of experiment: Antibacterial activity against methicillin-resistant Staphylococcus aureus USA300 assessed as inhibition of bacterial growth incubated for 16 to 18 hrs by CLSI based two-fold serial dilution method. The series is classed as functional. The conditions noted are these: time 16-18 hrs.
The test system of series [2] is Pseudomonas aeruginosa. As to the kind of experiment: Antibacterial activity against Pseudomonas aeruginosa 535 assessed as inhibition of bacterial growth incubated for 16 to 18 hrs by CLSI based two-fold serial dilution method. The series is classed as functional. The conditions noted are these: time 16-18 hrs.
The subject of series [3] is Acinetobacter baumannii. Description: Antibacterial activity against Acinetobacter baumannii 1310 assessed as inhibition of bacterial growth incubated for 16 to 18 hrs by CLSI based two-fold serial dilution method. Format: functional. The conditions noted are these: time 16-18 hrs.
Series [4] concerns Staphylococcus aureus. Description: Antibacterial activity against methicillin-resistant Staphylococcus aureus 3392 assessed as inhibition of bacterial growth incubated for 16 to 18 hrs by CLSI based two-fold serial dilution method. Format: functional. The conditions noted are these: time 16-18 hrs.
Series [5] has as its system Staphylococcus aureus. As to the kind of experiment: Antibacterial activity against methicillin-resistant Staphylococcus aureus 330041 assessed as inhibition of bacterial growth incubated for 16 to 18 hrs by CLSI based two-fold serial dilution method. The series is classed as functional. The conditions noted are these: time 16-18 hrs.
Series [6] has as its system Staphylococcus aureus. As to the kind of experiment: Antibacterial activity against methicillin-resistant Staphylococcus aureus 3390 assessed as inhibition of bacterial growth incubated for 16 to 18 hrs by CLSI based two-fold serial dilution method. The series is classed as functional. The conditions noted are these: time 16-18 hrs.
Series [7] in a line: Cytotoxicity against human L02 cells assessed as inhibition of cell growth incubated for 24 hrs by MTT assay. The series is classed as toxicity, cell-based. For orientation: Formazan colour is commonly taken as a measure of viable cells.
For series [8], the system named is Pseudomonas aeruginosa. Description: Antibacterial activity against Pseudomonas aeruginosa 408 assessed as inhibition of bacterial growth incubated for 16 to 18 hrs by CLSI based two-fold serial dilution method. Format: functional. The conditions noted are these: time 16-18 hrs.
The test system of series [9] is Acinetobacter baumannii. As to the kind of experiment: Antibacterial activity against Acinetobacter baumannii 1309 assessed as inhibition of bacterial growth incubated for 16 to 18 hrs by CLSI based two-fold serial dilution method. The series is classed as functional. The conditions noted are these: time 16-18 hrs.

Some results are limits rather than exact numbers.

`O=C(O)CCCCCCCCC[P+](c1ccccc1)(c1ccccc1)c1ccccc1.[Br-]`: the MIC in the series on Staphylococcus aureus [1], in the series on Pseudomonas aeruginosa [2], in the series with Acinetobacter baumannii [3], with Staphylococcus aureus [4], in the series with Staphylococcus aureus [5] and with Staphylococcus aureus [6] was more than 64 µg/mL each time. Besides, the MIC with Pseudomonas aeruginosa [8] and in the series with Acinetobacter baumannii [9] was more than 64 µg/mL each time. Further, the IC50 at 24 h in series [7] is more than 64 µg/mL.
Take `Br.CN(C)c1ccc([P+](CCCCCCCCCC(=O)OC[C@H](NC(=O)C(Cl)Cl)[C@H](O)c2ccc([N+](=O)[O-])cc2)(c2ccc(N(C)C)cc2)c2ccc(N(C)C)cc2)cc1`: the minimum inhibitory concentration (MIC) in the series on Staphylococcus aureus [1] is 1 µg/mL; in the series with Pseudomonas aeruginosa [2] it was 16 µg/mL; with Acinetobacter baumannii [3], 32 µg/mL; with Staphylococcus aureus [4], 1 µg/mL; in the series on Staphylococcus aureus [5], 1 µg/mL; with Staphylococcus aureus [6], 1 µg/mL. Further, the MIC came out at 4 µg/mL in the series on Pseudomonas aeruginosa [8] and 16 µg/mL in the series on Acinetobacter baumannii [9]. Also, the IC50 at 24 h in [7] came to 12.4 µg/mL.
Regarding `Br.O=C(CCCC[P+](c1ccccc1)(c1ccccc1)c1ccccc1)OC[C@H](NC(=O)C(Cl)Cl)[C@H](O)c1ccc([N+](=O)[O-])cc1`, the MIC in the series with Staphylococcus aureus [1] was 8 µg/mL; in the series on Pseudomonas aeruginosa [2], more than 64 µg/mL; in the series on Acinetobacter baumannii [3] it was more than 64 µg/mL; in the series with Staphylococcus aureus [4] it was 8 µg/mL; in the series with Staphylococcus aureus [5], 16 µg/mL; with Staphylococcus aureus [6], 8 µg/mL. Also, the MIC in the series with Pseudomonas aeruginosa [8] and in the series on Acinetobacter baumannii [9] was more than 64 µg/mL each time. Besides, the IC50 at 24 h in [7] was more than 64 µg/mL.
`Cc1ccc([P+](CCCCCCCCCC(=O)O)(c2ccc(C)cc2)c2ccc(C)cc2)cc1.[Br-]`: the MIC with Staphylococcus aureus [1], in the series on Pseudomonas aeruginosa [2], in the series with Acinetobacter baumannii [3], in the series on Staphylococcus aureus [4], in the series on Staphylococcus aureus [5] and with Staphylococcus aureus [6] was more than 64 µg/mL throughout. For the same compound, the MIC with Pseudomonas aeruginosa [8] and in the series on Acinetobacter baumannii [9] was more than 64 µg/mL throughout. Moreover, in series [7], the 50% inhibitory concentration (IC50) at 24 h was 23.1 µg/mL.
Turning to `CN(C)c1ccc([P+](CCCCCCCCCC(=O)O)(c2ccc(N(C)C)cc2)c2ccc(N(C)C)cc2)cc1.[Br-]`, the MIC with Staphylococcus aureus [1] came out at 4 µg/mL; in the series with Pseudomonas aeruginosa [2], 32 µg/mL; with Acinetobacter baumannii [3], 32 µg/mL; with Staphylococcus aureus [4], 16 µg/mL; with Staphylococcus aureus [5], 8 µg/mL; in the series on Staphylococcus aureus [6], 8 µg/mL. The values for the MIC in the series with Pseudomonas aeruginosa [8] and with Acinetobacter baumannii [9] were 16 µg/mL and 32 µg/mL, respectively. For the same compound, the IC50 at 24 h in series [7] came out at 2.1 µg/mL.
In the case of `O=C(O)CCCCCCCCCCC[P+](c1ccccc1)(c1ccccc1)c1ccccc1.[Br-]`, the minimum inhibitory concentration (MIC) with Staphylococcus aureus [1], in the series on Pseudomonas aeruginosa [2], in the series with Acinetobacter baumannii [3], in the series on Staphylococcus aureus [4], with Staphylococcus aureus [5] and with Staphylococcus aureus [6] was more than 64 µg/mL in each case. The MIC with Pseudomonas aeruginosa [8] and in the series on Acinetobacter baumannii [9] was more than 64 µg/mL in each case. In series [7], the IC50 at 24 h is more than 64 µg/mL.
With `O=C(O)CCCCC[P+](c1ccccc1)(c1ccccc1)c1ccccc1.[Br-]`, the MIC in the series with Staphylococcus aureus [1], with Pseudomonas aeruginosa [2], in the series with Acinetobacter baumannii [3], with Staphylococcus aureus [4], in the series on Staphylococcus aureus [5] and in the series with Staphylococcus aureus [6] was more than 64 µg/mL throughout. The MIC in the series with Pseudomonas aeruginosa [8] and in the series with Acinetobacter baumannii [9] was more than 64 µg/mL each time. Also, the IC50 at 24 h in [7] was more than 64 µg/mL.
As for `O=C(O)CCCCCn1cc(C[P+](c2ccc(F)cc2)(c2ccc(F)cc2)c2ccc(F)cc2)nn1.[Br-]`, the MIC in the series on Staphylococcus aureus [1], in the series on Pseudomonas aeruginosa [2], with Acinetobacter baumannii [3], in the series on Staphylococcus aureus [4], in the series with Staphylococcus aureus [5] and in the series on Staphylococcus aureus [6] was more than 64 µg/mL in each case. The MIC in the series with Pseudomonas aeruginosa [8] and in the series on Acinetobacter baumannii [9] was more than 64 µg/mL each time. Moreover, the IC50 at 24 h in [7] was more than 64 µg/mL.
Take `O=C(O)CCCCCCCCC[P+](c1ccc(C(F)(F)F)cc1)(c1ccc(C(F)(F)F)cc1)c1ccc(C(F)(F)F)cc1.[Br-]`: the MIC in the series with Staphylococcus aureus [1], in the series with Pseudomonas aeruginosa [2], in the series on Acinetobacter baumannii [3], in the series with Staphylococcus aureus [4], in the series on Staphylococcus aureus [5] and in the series on Staphylococcus aureus [6] was more than 64 µg/mL throughout. For the same compound, the MIC in the series on Pseudomonas aeruginosa [8] and in the series on Acinetobacter baumannii [9] was more than 64 µg/mL each time. Also, the IC50 at 24 h in series [7] was more than 64 µg/mL.

For orientation: MIC means the lowest concentration found to suppress growth. The IC50 is the midpoint of a concentration-inhibition curve.
